We go through 12 compounds from patent publication US8343961B2, “Substituted heterocyclic compounds” (ArQule, Inc., priority 2009, dated 2013).

One assay concerns the target RET kinase (Homo sapiens, UniProt P07949). As to the kind of experiment: RET Kinase Activity Assay. It is filed as biochemical. Particulars: read-out: Ret, % INH, at 30 uM. A digest of the protocol:
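RET […] was preincubated with compound for 15 min, then phosphorylated biotinylated Pyk-2 substrate for 1 h at room temperature with 75 μM ATP and 10 mM MgCl2. Product was captured on streptavidin plates and detected with anti-phosphotyrosine, an AP-tagged secondary antibody and Attophos fluorescence.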

In the next assay the target is T1, EphA8 (Homo sapiens, UniProt P29322).
T1 sequence (P29322 28-1005): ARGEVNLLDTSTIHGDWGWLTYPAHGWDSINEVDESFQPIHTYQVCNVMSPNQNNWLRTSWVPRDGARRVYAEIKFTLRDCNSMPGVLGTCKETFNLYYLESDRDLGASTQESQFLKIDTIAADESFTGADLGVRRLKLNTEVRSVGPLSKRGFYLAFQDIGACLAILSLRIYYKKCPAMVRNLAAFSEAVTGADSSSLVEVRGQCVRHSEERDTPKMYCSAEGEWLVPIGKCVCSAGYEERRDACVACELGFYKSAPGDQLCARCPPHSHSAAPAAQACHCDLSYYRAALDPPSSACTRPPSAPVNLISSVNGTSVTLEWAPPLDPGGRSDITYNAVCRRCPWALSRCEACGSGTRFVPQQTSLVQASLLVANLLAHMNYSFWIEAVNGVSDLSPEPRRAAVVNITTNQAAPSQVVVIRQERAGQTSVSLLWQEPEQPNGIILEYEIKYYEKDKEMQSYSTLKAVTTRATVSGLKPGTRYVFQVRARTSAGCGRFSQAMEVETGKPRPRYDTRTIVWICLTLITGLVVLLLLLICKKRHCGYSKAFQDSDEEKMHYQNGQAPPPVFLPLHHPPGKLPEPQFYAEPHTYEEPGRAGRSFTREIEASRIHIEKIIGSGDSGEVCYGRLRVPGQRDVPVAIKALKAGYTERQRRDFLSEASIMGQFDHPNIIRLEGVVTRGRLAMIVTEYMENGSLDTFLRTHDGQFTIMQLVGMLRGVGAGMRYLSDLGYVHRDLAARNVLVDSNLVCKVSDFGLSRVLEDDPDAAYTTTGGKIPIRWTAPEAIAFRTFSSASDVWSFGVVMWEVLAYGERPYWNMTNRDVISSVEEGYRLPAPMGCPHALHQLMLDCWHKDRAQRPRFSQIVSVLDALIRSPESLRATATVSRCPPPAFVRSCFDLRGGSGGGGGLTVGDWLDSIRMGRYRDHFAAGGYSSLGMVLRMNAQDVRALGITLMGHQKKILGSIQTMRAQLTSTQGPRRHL
The experiment in a line: EphA8 Kinase Activity Assay. In kind it is biochemical. Particulars: read-out: EphA8, % INH, at 30 uM. As for the experimental part:
Nunc Maxisorb plates are coated with streptavidin by overnight incubation with 100 μL per well of 1 μg/ml Streptavidin in DPBS. Prior to the start of the experiment, the plates are washed with TBST (3×200 μL) and blocked for at least 1 hour by adding 150 μL of 5% BSA/TBST. The plates are washed with TBST (3×200 μL/well) and left dry immediately before the capture step.
The test articles and control (Staurosporine) are prepared using the following assay buffer @ 3× desired final concentration (50 mM Tris-HCl, 0.02 mg/ml BSA, 10 mM MgCl2, 0.1 mM Na3VO4, 1 mM EGTA, 12.5 μM ATP, 0.01% NP-40, 1 mM DTT in 10% glycerol/water). In a reaction plate are added rapidly 20 μl test article (or control) and 20 μl EphA8 (0.12 ng/μl final concentration). The plate is incubated for 15 minutes. To the reaction plate is added 20 μl of Pyk-2 (0.75 ng/μl final concentration). The plate is incubated at room temperature for one hour. From the reaction plate, 50 μl is transferred to the streptavidin coated plate. The capture plate is incubated at room temperature for 30 minutes, then washed 6× with TBST. To the capture plate is added 100 μL/well of Cell Signaling anti-phospho tyrosine at a dilution of 1:3000 in 2% BSA/TBST. The plate is incubated for one hour at room temperature then washed 6× with TBST. To the capture plate is added 100 μL/well of Alkaline Phosphatase Tagged Goat anti Mouse Antibody at a dilution of 1:4000 in 2% BSA/TBST. The plate is incubated for one hour at room temperature then washed 6× with TBST. The fluorescent readout is initiated by the addition of 100 μl/well of Attophos reagent (6 mg/10 mL). The reading is done on the Perkin Elmer Envision system.

Where only a bound is given, the exact number is not on record here.

Chain of RET kinase (P07949 29-1114): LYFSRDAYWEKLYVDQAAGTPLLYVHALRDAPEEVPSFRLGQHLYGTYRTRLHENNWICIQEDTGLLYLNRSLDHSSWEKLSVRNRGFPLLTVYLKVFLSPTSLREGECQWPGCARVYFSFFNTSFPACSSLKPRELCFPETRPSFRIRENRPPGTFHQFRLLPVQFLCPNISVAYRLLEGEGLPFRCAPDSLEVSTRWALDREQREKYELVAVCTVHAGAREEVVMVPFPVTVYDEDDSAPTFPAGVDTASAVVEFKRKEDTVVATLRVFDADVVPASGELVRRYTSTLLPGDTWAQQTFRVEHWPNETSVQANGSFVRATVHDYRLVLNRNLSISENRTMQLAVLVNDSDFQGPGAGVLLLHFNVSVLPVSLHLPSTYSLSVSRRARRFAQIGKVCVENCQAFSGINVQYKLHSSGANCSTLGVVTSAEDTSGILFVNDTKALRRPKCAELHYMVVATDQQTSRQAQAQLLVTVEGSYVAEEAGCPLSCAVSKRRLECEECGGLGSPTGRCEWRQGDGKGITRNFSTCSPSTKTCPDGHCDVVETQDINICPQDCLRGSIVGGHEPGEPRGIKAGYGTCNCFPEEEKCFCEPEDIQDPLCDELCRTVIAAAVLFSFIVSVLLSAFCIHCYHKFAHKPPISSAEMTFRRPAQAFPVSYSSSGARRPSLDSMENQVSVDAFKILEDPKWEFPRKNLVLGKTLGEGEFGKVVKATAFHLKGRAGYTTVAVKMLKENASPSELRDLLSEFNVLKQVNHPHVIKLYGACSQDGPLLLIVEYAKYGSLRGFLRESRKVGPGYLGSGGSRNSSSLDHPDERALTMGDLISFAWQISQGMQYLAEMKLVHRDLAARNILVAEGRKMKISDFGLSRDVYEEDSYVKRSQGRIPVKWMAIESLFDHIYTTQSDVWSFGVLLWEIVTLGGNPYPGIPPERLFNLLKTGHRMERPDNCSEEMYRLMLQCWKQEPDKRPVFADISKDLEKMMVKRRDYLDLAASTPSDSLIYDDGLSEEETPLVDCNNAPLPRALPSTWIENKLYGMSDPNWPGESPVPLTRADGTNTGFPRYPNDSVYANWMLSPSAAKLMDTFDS

Consider `Nc1nc(N2CCN(Cc3ccc(Cl)cc3Cl)c3ccccc3C2)c2nc[nH]c2n1` [Compound 31, 6-[1-(2,4-dichlorobenzyl)-1,2,3,5-tetrahydro-4H-1,4-benzodiazepin-4-yl]-9H-purin-2-amine], for which the inhibition at 30 µM at RET kinase and at EphA8 was below 50% each time.

As to `Nc1nc(N2CCN(Cc3cccc(Cl)c3)c3ccccc3C2)c2cn[nH]c2n1` [Compound 25, 4-[1-(3-chlorobenzyl)-1,2,3,5-tetrahydro-4H-1,4-benzodiazepin-4-yl]-1H-pyrazolo[3,4-d]pyrimidin-6-amine], the inhibition at 30 µM on RET kinase and at EphA8 was below 50% each time.

In the case of `Cc1cccc(CN2CCN(c3nc(N)nc4[nH]cnc34)Cc3ccccc32)c1` [Compound 33, 6-[1-(3-methylbenzyl)-1,2,3,5-tetrahydro-4H-1,4-benzodiazepin-4-yl]-9H-purin-2-amine], the inhibition at 30 µM on RET kinase is 50 to 79%; at EphA8, below 50%.

As to `Nc1nc(N2CCN(Cc3ccccc3Cl)c3ccccc3C2)c2nc[nH]c2n1` [Compound 13, 6-[1-(2-chlorobenzyl)-1,2,3,5-tetrahydro-4H-1,4-benzodiazepin-4-yl]-9H-purin-2-amine], the inhibition at 30 µM at RET kinase and on EphA8 was below 50% each time.

For `COc1ccccc1CN1CCN(c2nc(N)nc3[nH]cnc23)Cc2ccccc21` [Compound 9, 6-[1-(2-methoxybenzyl)-1,2,3,5-tetrahydro-4H-1,4-benzodiazepin-4-yl]-9H-purin-2-amine], the figures for the inhibition at 30 µM at RET kinase and at EphA8 were 50 to 79% and below 50%, respectively.

`Nc1nc(N2CCN(Cc3cccc(C(F)(F)F)c3)c3ccccc3C2)c2nc[nH]c2n1` [Compound 20, 6-{1-[3-(trifluoromethyl)benzyl]-1,2,3,5-tetrahydro-4H-1,4-benzodiazepin-4-yl}-9H-purin-2-amine]: the inhibition at 30 µM was below 50% on RET kinase and 50 to 79% at EphA8.

In the case of `CC(C)(C)c1ccc(CN2CCN(c3nc(N)nc4[nH]ncc34)Cc3ccccc32)cc1` [Compound 30, 4-[1-(4-tert-butylbenzyl)-1,2,3,5-tetrahydro-4H-1,4-benzodiazepin-4-yl]-1H-pyrazolo[3,4-d]pyrimidin-6-amine], the inhibition at 30 µM on RET kinase was 50 to 79%; on EphA8, below 50%.

For the compound `Nc1nc(N2CCN(Cc3cccc(Cl)c3)c3ccccc3C2)c2nc[nH]c2n1` [Compound 24, 6-[1-(3-chlorobenzyl)-1,2,3,5-tetrahydro-4H-1,4-benzodiazepin-4-yl]-9H-purin-2-amine], the inhibition at 30 µM at RET kinase and at EphA8 was 50 to 79% throughout.

For `Nc1nc(N2CCN(Cc3ccccc3Cl)c3ccccc3C2)c2cn[nH]c2n1` [Compound 14, 4-[1-(2-chlorobenzyl)-1,2,3,5-tetrahydro-4H-1,4-benzodiazepin-4-yl]-1H-pyrazolo[3,4-d]pyrimidin-6-amine], the inhibition at 30 µM at RET kinase and on EphA8 was below 50% each time.

For the compound `Nc1nc(N2CCN(Cc3ccc(F)c(F)c3)c3ccccc3C2)c2nc[nH]c2n1` [Compound 46, 6-[1-(3,4-difluorobenzyl)-1,2,3,5-tetrahydro-4H-1,4-benzodiazepin-4-yl]-9H-purin-2-amine], the inhibition at 30 µM was 50 to 79% at RET kinase and below 50% on EphA8.

Regarding `Nc1nc(N2CCN(Cc3ccc(Cl)cc3)c3ccccc3C2)c2cn[nH]c2n1` [Compound 23, 4-[1-(4-chlorobenzyl)-1,2,3,5-tetrahydro-4H-1,4-benzodiazepin-4-yl]-1H-pyrazolo[3,4-d]pyrimidin-6-amine], the inhibition at 30 µM at RET kinase is below 50%; at EphA8 it was 50 to 79%.

Regarding `COc1ccccc1CN1CCN(c2nc(N)nc3[nH]ncc23)Cc2ccccc21` [Compound 10, 4-[1-(2-methoxybenzyl)-1,2,3,5-tetrahydro-4H-1,4-benzodiazepin-4-yl]-1H-pyrazolo[3,4-d]pyrimidin-6-amine], the inhibition at 30 µM at RET kinase and on EphA8 was below 50% throughout.
